Data: PubChem BioAssay AID1963837 (Molecular Pharmacology Branch, DTP, NCI, 2024)

system: 843126-344-R-J1-PDC complex spheroid viability; experiment: Anticancer human tumor 843126-344-R-J1-PDC patient-derived melanoma cell line growth inhibition [POLQ]; details: second compound 3.16 µM; first compound 0.01 µM; stronger effect = lower value
Outline: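 Growth inhibition in 3D: complex spheroids (tumor PDC, HUVEC, MSC) treated with POLQ inhibitor combinations; where Cmax unknown, highest tested concentration 10 microM, except SN-38 at 1 microM.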
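Further: spheroids exposed to drugs for seven days before readout.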

| SMILES | viability, T/C |
| --- | --- |
| CC[C@@]1(O)C(=O)OCc2c1cc1n(c2=O)Cc2cc3c(CN(C)C)c(O)ccc3nc2-1 + Cc1cccc(N(C)C(=O)C2C(O)CCN2c2nc(C)cc(C(F)(F)F)c2C#N)c1 | 105% |
| CCc1c2c(nc3ccc(O)cc13)-c1cc3c(c(=O)n1C2)COC(=O)[C@]3(O)CC + Cc1cccc(N(C)C(=O)C2C(O)CCN2c2nc(C)cc(C(F)(F)F)c2C#N)c1 | 60.9% |
| Cn1ncnc1[C@H]1c2n[nH]c(=O)c3cc(F)cc(c23)N[C@@H]1c1ccc(F)cc1 + Cc1cccc(N(C)C(=O)C2C(O)CCN2c2nc(C)cc(C(F)(F)F)c2C#N)c1 | 77.6% |

same assay, conditions: second compound 3.16 µM; first compound 0.0316 µM; stronger effect = lower value

| SMILES | viability, T/C |
| --- | --- |
| C=CCn1c(=O)c2cnc(Nc3ccc(N4CCN(C)CC4)cc3)nc2n1-c1cccc(C(C)(C)O)n1 + Cc1cccc(N(C)C(=O)C2C(O)CCN2c2nc(C)cc(C(F)(F)F)c2C#N)c1 | 104% |
| CC[C@@]1(O)C(=O)OCc2c1cc1n(c2=O)Cc2cc3c(CN(C)C)c(O)ccc3nc2-1 + Cc1cccc(N(C)C(=O)C2C(O)CCN2c2nc(C)cc(C(F)(F)F)c2C#N)c1 | 70% |
| CCc1c2c(nc3ccc(O)cc13)-c1cc3c(c(=O)n1C2)COC(=O)[C@]3(O)CC + Cc1cccc(N(C)C(=O)C2C(O)CCN2c2nc(C)cc(C(F)(F)F)c2C#N)c1 | 50.3% |
| CNCc1ccc(-c2[nH]c3cc(F)cc4c3c2CCNC4=O)cc1 + Cc1cccc(N(C)C(=O)C2C(O)CCN2c2nc(C)cc(C(F)(F)F)c2C#N)c1 | 79.8% |
| Cn1ncnc1[C@H]1c2n[nH]c(=O)c3cc(F)cc(c23)N[C@@H]1c1ccc(F)cc1 + Cc1cccc(N(C)C(=O)C2C(O)CCN2c2nc(C)cc(C(F)(F)F)c2C#N)c1 | 87.5% |
| O=C(c1cc(Cc2n[nH]c(=O)c3ccccc23)ccc1F)N1CCN(C(=O)C2CC2)CC1 + Cc1cccc(N(C)C(=O)C2C(O)CCN2c2nc(C)cc(C(F)(F)F)c2C#N)c1 | 91.5% |

same assay, conditions: second compound 3.16 µM; first compound 0.1 µM; stronger effect = lower value

| SMILES | viability, T/C |
| --- | --- |
| C=CCn1c(=O)c2cnc(Nc3ccc(N4CCN(C)CC4)cc3)nc2n1-c1cccc(C(C)(C)O)n1 + Cc1cccc(N(C)C(=O)C2C(O)CCN2c2nc(C)cc(C(F)(F)F)c2C#N)c1 | 112% |
| CC[C@@]1(O)C(=O)OCc2c1cc1n(c2=O)Cc2cc3c(CN(C)C)c(O)ccc3nc2-1 + Cc1cccc(N(C)C(=O)C2C(O)CCN2c2nc(C)cc(C(F)(F)F)c2C#N)c1 | 52.3% |
| CCc1c2c(nc3ccc(O)cc13)-c1cc3c(c(=O)n1C2)COC(=O)[C@]3(O)CC + Cc1cccc(N(C)C(=O)C2C(O)CCN2c2nc(C)cc(C(F)(F)F)c2C#N)c1 | 67.7% |
| CNCc1ccc(-c2[nH]c3cc(F)cc4c3c2CCNC4=O)cc1 + Cc1cccc(N(C)C(=O)C2C(O)CCN2c2nc(C)cc(C(F)(F)F)c2C#N)c1 | 83.4% |
| Cn1ncnc1[C@H]1c2n[nH]c(=O)c3cc(F)cc(c23)N[C@@H]1c1ccc(F)cc1 + Cc1cccc(N(C)C(=O)C2C(O)CCN2c2nc(C)cc(C(F)(F)F)c2C#N)c1 | 67.3% |
| O=C(c1cc(Cc2n[nH]c(=O)c3ccccc23)ccc1F)N1CCN(C(=O)C2CC2)CC1 + Cc1cccc(N(C)C(=O)C2C(O)CCN2c2nc(C)cc(C(F)(F)F)c2C#N)c1 | 83.3% |

same assay, conditions: second compound 3.16 µM; first compound 0.316 µM; stronger effect = lower value

| SMILES | viability, T/C |
| --- | --- |
| C=CCn1c(=O)c2cnc(Nc3ccc(N4CCN(C)CC4)cc3)nc2n1-c1cccc(C(C)(C)O)n1 + Cc1cccc(N(C)C(=O)C2C(O)CCN2c2nc(C)cc(C(F)(F)F)c2C#N)c1 | 113% |
| CCc1c2c(nc3ccc(O)cc13)-c1cc3c(c(=O)n1C2)COC(=O)[C@]3(O)CC + Cc1cccc(N(C)C(=O)C2C(O)CCN2c2nc(C)cc(C(F)(F)F)c2C#N)c1 | 66.1% |
| CNCc1ccc(-c2[nH]c3cc(F)cc4c3c2CCNC4=O)cc1 + Cc1cccc(N(C)C(=O)C2C(O)CCN2c2nc(C)cc(C(F)(F)F)c2C#N)c1 | 83.6% |
| O=C(c1cc(Cc2n[nH]c(=O)c3ccccc23)ccc1F)N1CCN(C(=O)C2CC2)CC1 + Cc1cccc(N(C)C(=O)C2C(O)CCN2c2nc(C)cc(C(F)(F)F)c2C#N)c1 | 88.8% |

same assay, conditions: second compound 3.16 µM; first compound 1 µM; stronger effect = lower value

| SMILES | viability, T/C |
| --- | --- |
| C=CCn1c(=O)c2cnc(Nc3ccc(N4CCN(C)CC4)cc3)nc2n1-c1cccc(C(C)(C)O)n1 + Cc1cccc(N(C)C(=O)C2C(O)CCN2c2nc(C)cc(C(F)(F)F)c2C#N)c1 | 89.3% |
| CCc1c2c(nc3ccc(O)cc13)-c1cc3c(c(=O)n1C2)COC(=O)[C@]3(O)CC + Cc1cccc(N(C)C(=O)C2C(O)CCN2c2nc(C)cc(C(F)(F)F)c2C#N)c1 | 45.7% |
| CNCc1ccc(-c2[nH]c3cc(F)cc4c3c2CCNC4=O)cc1 + Cc1cccc(N(C)C(=O)C2C(O)CCN2c2nc(C)cc(C(F)(F)F)c2C#N)c1 | 85.2% |
| O=C(c1cc(Cc2n[nH]c(=O)c3ccccc23)ccc1F)N1CCN(C(=O)C2CC2)CC1 + Cc1cccc(N(C)C(=O)C2C(O)CCN2c2nc(C)cc(C(F)(F)F)c2C#N)c1 | 89.6% |

same assay, conditions: second compound 3.16 µM; first compound 3.16 µM; stronger effect = lower value

| SMILES | viability, T/C |
| --- | --- |
| CNCc1ccc(-c2[nH]c3cc(F)cc4c3c2CCNC4=O)cc1 + Cc1cccc(N(C)C(=O)C2C(O)CCN2c2nc(C)cc(C(F)(F)F)c2C#N)c1 | 87.5% |
| O=C(c1cc(Cc2n[nH]c(=O)c3ccccc23)ccc1F)N1CCN(C(=O)C2CC2)CC1 + Cc1cccc(N(C)C(=O)C2C(O)CCN2c2nc(C)cc(C(F)(F)F)c2C#N)c1 | 84.2% |

same assay, conditions: second compound 3.16 µM; first compound 10 µM; stronger effect = lower value

| SMILES | viability, T/C |
| --- | --- |
| CNCc1ccc(-c2[nH]c3cc(F)cc4c3c2CCNC4=O)cc1 + Cc1cccc(N(C)C(=O)C2C(O)CCN2c2nc(C)cc(C(F)(F)F)c2C#N)c1 | 72.9% |
| O=C(c1cc(Cc2n[nH]c(=O)c3ccccc23)ccc1F)N1CCN(C(=O)C2CC2)CC1 + Cc1cccc(N(C)C(=O)C2C(O)CCN2c2nc(C)cc(C(F)(F)F)c2C#N)c1 | 71.2% |

same assay, conditions: second compound 10 µM; first compound 0.000316 µM; stronger effect = lower value

| SMILES | viability, T/C |
| --- | --- |
| CC[C@@]1(O)C(=O)OCc2c1cc1n(c2=O)Cc2cc3c(CN(C)C)c(O)ccc3nc2-1 + Cc1cccc(N(C)C(=O)C2C(O)CCN2c2nc(C)cc(C(F)(F)F)c2C#N)c1 | 84.6% |
| Cn1ncnc1[C@H]1c2n[nH]c(=O)c3cc(F)cc(c23)N[C@@H]1c1ccc(F)cc1 + Cc1cccc(N(C)C(=O)C2C(O)CCN2c2nc(C)cc(C(F)(F)F)c2C#N)c1 | 76.3% |

same assay, conditions: second compound 10 µM; first compound 0.001 µM; stronger effect = lower value

| SMILES | viability, T/C |
| --- | --- |
| CC[C@@]1(O)C(=O)OCc2c1cc1n(c2=O)Cc2cc3c(CN(C)C)c(O)ccc3nc2-1 + Cc1cccc(N(C)C(=O)C2C(O)CCN2c2nc(C)cc(C(F)(F)F)c2C#N)c1 | 83.9% |
| Cn1ncnc1[C@H]1c2n[nH]c(=O)c3cc(F)cc(c23)N[C@@H]1c1ccc(F)cc1 + Cc1cccc(N(C)C(=O)C2C(O)CCN2c2nc(C)cc(C(F)(F)F)c2C#N)c1 | 87.8% |
